# Patent EP4610269A1, “UROKINASE PLASMINOGEN ACTIVATOR SURFACE RECEPTOR (UPAR) LIGANDS FOR DIAGNOSTIC OR THERAPEUTIC USE” (3B Pharmaceuticals GmbH, priority 2024, dated 2025)
# Read-outs that look alike come from different tables or passages of the source. Where a SMILES comes first, the peptide text is derived from it. Bridges are numbered along the chain shown (N, C = ends). [ ]: non-standard residue; d: D form. The star is where a group is joined. X3 = NC(=O)[C@H](CCCCNC(=O)CN1CCN(CC(=O)O)CCN(CC(=O)O)CCN(CC(=O)O)CC1)NC(=O)CCC(=O)NCCCOCCOCCOCCCN*; DOTA = O=C(O)CN1CCN(CC(=O)O)CCN(CC(=O)*)CCN(CC(=O)O)CC1; Pro(trans-4-F) = O=C(O)[C@@H]1C[C@@H](F)CN1; Phe(4-Cl) = N[C@@H](Cc1ccc(Cl)cc1)C(=O)O; Hyp = O=C(O)[C@@H]1C[C@@H](O)CN1; 3Pal = N[C@@H](Cc1cccnc1)C(=O)O; Pentanoyl(4-Me) = CC(C)CCC(=O)*; Cit = NC(=O)NCCC[C@H](N)C(=O)O; Nva = CCC[C@H](N)C(=O)O; Hexanoyl = CCCCCC(=O)*; Pentanoyl = CCCCC(=O)*
# Legend:
# [1] = target: T1, human uPAR (uPAR-Fc) (Homo sapiens, UniProt Q03405); assay: Surface plasmon resonance (SPR) assay, single cycle kinetics; format: binding; settings: pKD category for uPAR SPR activity assay, uPAR-Fc on Protein A-Chip, 25°C; for Kd: read-out: pKD CAT (converted)
# T1 construct: comprising amino acids Leu23-Arg303 according to UniProt entry Q03405.1; purchased R&D Systems 10378-UK-100
# T1 sequence (Q03405 23-303): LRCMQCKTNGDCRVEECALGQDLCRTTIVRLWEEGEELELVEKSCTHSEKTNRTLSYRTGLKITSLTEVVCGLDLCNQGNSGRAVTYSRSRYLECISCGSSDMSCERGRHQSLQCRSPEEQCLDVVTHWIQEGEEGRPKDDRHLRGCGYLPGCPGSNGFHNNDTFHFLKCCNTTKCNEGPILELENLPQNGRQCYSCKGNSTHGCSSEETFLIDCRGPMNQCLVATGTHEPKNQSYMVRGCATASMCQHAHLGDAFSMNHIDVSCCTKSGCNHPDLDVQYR
# Procedure, shortened: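 uPAR-Fc (Leu23-Arg303 extracellular domains, human IgG1 Fc) captured on Protein A chip to ~2000 RU; single-cycle kinetics at 25°C in HEPES running buffer pH 7.4 with 0.1% DMSO. KD from double-referenced sensorgrams fitted to 1:1 Langmuir model, reported as pKD.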
# [2] = target: T2, uPAR-expressing HEC-265 human endometrial adenocarcinoma cells (Homo sapiens, UniProt Q03405); assay: Competitive FACS binding assay; settings: pIC50 category of FACS binding
# T2 construct: Cell surface uPAR-expressing HEC-265 human endometrial adenocarcinoma cells; host or cells: HEC-265
# T2 sequence (Q03405 23-335): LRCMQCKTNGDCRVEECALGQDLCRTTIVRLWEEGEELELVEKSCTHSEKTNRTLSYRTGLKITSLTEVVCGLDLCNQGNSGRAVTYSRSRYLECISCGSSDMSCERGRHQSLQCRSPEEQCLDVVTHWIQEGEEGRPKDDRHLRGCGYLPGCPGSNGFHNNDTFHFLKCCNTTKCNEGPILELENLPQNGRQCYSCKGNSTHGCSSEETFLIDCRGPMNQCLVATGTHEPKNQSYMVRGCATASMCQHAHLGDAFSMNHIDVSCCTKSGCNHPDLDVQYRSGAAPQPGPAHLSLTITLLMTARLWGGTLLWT
# Procedure, shortened: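 HEC-265 cells incubated 1 h at 4 °C with 10 nM biotinylated uPAR peptide tracer plus increasing test compound, then stained with APC-streptavidin on ice. Median APC fluorescence by flow cytometry; 4PL fit gives pIC50.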
Compound,Kd [1] [nM],IC50 [2] [nM],Kd ([1]; single cycle kinetics) [nM],pKD CAT [1],pIC50 CAT [2]
"CC[C@H](C)[C@@H]1NC(=O)[C@H](C)NC(=O)[C@@H]2CCCN2C(=O)[C@H](Cc2ccccc2)NC(=O)[C@H](Cc2ccc(O)cc2)NC(=O)[C@H](CCSC)NC(=O)[C@H](CCCNC(=N)N)NC(=O)[C@@H](NC(=O)[C@H](CC(C)C)NC(=O)[C@H](CC(=O)O)NC(=O)[C@@H](N)CCSC)CSSC[C@@H](C(N)=O)NC(=O)[C@H](CC(C)C)NC1=O [UPAR-312, H-Met-Asp-Leu-[Cys-Arg-Met-Tyr-Phe-Pro-Ala-Ile-Leu-Cys]-NH2] (H-MDLCRMYFPAILC-NH2; disulfide 4-13)",1.58 to 10,≤ 10,,,
"CC[C@H](C)[C@@H]1NC(=O)[C@@H](C)NC(=O)[C@@H]2C[C@@H](F)CN2C(=O)[C@H](Cc2ccccc2)NC(=O)[C@H](Cc2ccc(O)cc2)NC(=O)[C@H](CCC(N)=O)NC(=O)[C@H](CCCNC(N)=O)NC(=O)[C@@H](NC(=O)CCC(C)C)CSSC[C@@H](C(N)=O)NC(=O)[C@H](CC(C)C)NC1=O [UPAR-178, iHex-[Cys-Cit-Gln-Tyr-Phe-4Tfp-ala-Ile-Leu-Cys]-NH2] ({Pentanoyl(4-Me)}-C[Cit]QYF[Pro(trans-4-F)][dA]ILC-NH2; disulfide 1-10)",1.58 to 10,≤ 10,,,
"CCCCC(=O)N[C@H]1CSSC[C@@H](C(N)=O)NC(=O)[C@H](CCC)NC(=O)[C@H]([C@@H](C)CC)NC(=O)[C@@H]2C[C@@H](O)CN2C(=O)[C@@H]2CCCN2C(=O)[C@H](Cc2ccccc2)NC(=O)[C@H](Cc2ccc(O)cc2)NC(=O)CNC(=O)[C@H](CCCNC(=N)N)NC1=O [UPAR-409, Pent-[Cys-Arg-Gly-Tyr-Phe-Pro-Hyp-Ile-Nva-Cys]-NH2] (Pentanoyl-CRGYFP[Hyp]I[Nva]C-NH2; disulfide 1-10)",,≤ 10,< 1.58,,
"CC[C@H](C)[C@@H]1NC(=O)[C@@H]2C[C@@H](O)CN2C(=O)[C@@H]2CCCN2C(=O)[C@H](Cc2ccccc2)NC(=O)[C@H](Cc2ccc(O)cc2)NC(=O)[C@H](CCCCNC(=O)CN2CCN(CC(=O)O)CCN(CC(=O)O)CCN(CC(=O)O)CC2)NC(=O)[C@H](CCCNC(N)=O)NC(=O)[C@@H](NC(=O)CCC(C)C)CSSC[C@@H](C(N)=O)NC(=O)[C@H](CC(C)C)NC1=O [UPAR-240, iHex-[Cys-Cit-Lys(DOTA)-Tyr-Phe-Pro-Hyp-Ile-Leu-Cys]-NH2] ({Pentanoyl(4-Me)}-C[Cit]K(DOTA)YFP[Hyp]ILC-NH2; disulfide 1-10)",< 1.58,≤ 10,,,
Butoc-[Cys-Cit-Lys(LuDOTA)-Tyr-Pcf-4Cfp-Hyp-Chg-Nva-Cys]-NH2 [UPAR-169],,,,A (pKD values ≥ 8.8),A (pIC50 values ≥8.0)
"CC[C@H](C)[C@@H]1NC(=O)[C@@H](C)NC(=O)[C@@H]2CCCN2C(=O)[C@H](Cc2ccc(Cl)cc2)NC(=O)[C@H](Cc2ccc(O)cc2)NC(=O)[C@H](CCC(N)=O)NC(=O)[C@H](CCCNC(N)=O)NC(=O)[C@@H](NC(=O)CCC(C)C)CSSC[C@@H](C(N)=O)NC(=O)[C@H](CC(C)C)NC1=O [UPAR-332, iHex-[Cys-Cit-Gln-Tyr-Pcf-Pro-ala-Ile-Leu-Cys]-NH2] ({Pentanoyl(4-Me)}-C[Cit]QY[Phe(4-Cl)]P[dA]ILC-NH2; disulfide 1-10)",< 1.58,≤ 10,,,

# Next, values leading:
Kd [1] [nM],IC50 [2] [nM],Kd ([1]; single cycle kinetics) [nM],pKD CAT [1],pIC50 CAT [2],Compound
1.58 to 10,≤ 10,,,,"CCCCC(=O)N[C@H]1CSSC[C@@H](C(N)=O)NC(=O)[C@H](CCC)NC(=O)[C@H]([C@@H](C)CC)NC(=O)[C@@H]2C[C@@H](O)CN2C(=O)[C@@H]2CCCN2C(=O)[C@H](Cc2cccnc2)NC(=O)[C@H](Cc2ccc(O)cc2)NC(=O)[C@H](CCCCNC(=O)CN2CCN(CC(=O)O)CCN(CC(=O)O)CCN(CC(=O)O)CC2)NC(=O)[C@H](CCCNC(N)=O)NC1=O [UPAR-253, Pent-[Cys-Cit-Lys(DOTA)-Tyr-Mpa-Pro-Hyp-Ile-Nva-Cys]-NH2] (Pentanoyl-C[Cit]K(DOTA)Y[3Pal]P[Hyp]I[Nva]C-NH2; disulfide 1-10)"
1.58 to 10,39.8 to 100,,,,"CCCCCC(=O)N[C@@H](CC(=O)O)C(=O)N[C@@H](CC(C)C)C(=O)N[C@H]1CSSC[C@@H](C(=O)NCCCOCCOCCOCCCNC(=O)CCC(=O)N[C@@H](CCCCNC(=O)CN2CCN(CC(=O)O)CCN(CC(=O)O)CCN(CC(=O)O)CC2)C(N)=O)NC(=O)[C@H](CC(C)C)NC(=O)[C@H]([C@@H](C)CC)NC(=O)[C@H](C)NC(=O)[C@@H]2CCCN2C(=O)[C@H](Cc2ccccc2)NC(=O)[C@H](Cc2ccc(O)cc2)NC(=O)[C@H](CCSC)NC(=O)[C@H](CCCNC(=N)N)NC1=O [UPAR-150, Hex-Asp-Leu-[Cys-Arg-Met-Tyr-Phe-Pro-Ala-Ile-Leu-Cys]-Ttds-Lys(DOTA)-NH2] (Hexanoyl-DLCRMYFPAILC-X3; disulfide 3-12)"
